Results on 22 molecules are retold here after patent US20260242360A1, “Novel Compound, and Pharmaceutical Composition for Prevention or Treatment of Cancer or Tumors Comprising Same” (Daewoong Pharmaceutical Co., Ltd., priority 2023, published 2026).

Molecules are shown by their SMILES. pIC50: −log10 of the molar value.

Holding throughout (format): cell-based
For assay [1], the system named is transcription factor TEAD. The assay can be described thus: Activity inhibition test of transcription factor TEAD (ONE-Glo luciferase assay, Hippo Pathway TEAD reporter-MCF7 cell line). The note with it: Homo sapiens; TEAD Reporter-MCF7 cells, 24 hours treatment, luciferase luminescence. On the procedure:
The transcription factor TEAD activity of the compounds prepared in Examples was measured by the ONE-Glo™ Luciferase assay (Promega, Catalog #E6110) method using the Hippo Pathway TEAD reporter-MCF7 recombinant cell line (BPS Bioscience, Catalog #60618).
Specifically, the TEAD Reporter-MCF7 cell line contains the firefly luciferase gene whose expression is regulated under the control of TEAD response elements in the MCF7, which is a human breast cancer cell line. In the cell line, a non-phosphorylated YAP/TAZ exists in the nucleus in a non-stressed condition, which continuously induces expression of the luciferase reporter.
TEAD Reporter-MCF7 cells were prepared in 100 μL of cell culture medium (MEM medium, 10% FBS, 1% P/S, 400 μg/mL Geneticin, 1% […], 1 mM NA pyruvate, 10 μg/mL Insulin) in a white clear bottom 96-well microplate. The prepared plate was incubated in a 5% CO2 incubator at 37° C. for 24 hours, and then the previously prepared compounds of Examples were finally treated at concentrations of 0.0005, 0.005, 0.05, 0.5 and 5 μM, which were repeated three times for all treatment solutions. The plates treated with the compounds of Examples were incubated in a 5% CO2 incubator at 37° C. for 24 hours. 100 μL/well of the substrate aqueous solution containing luciferin was added to a white clear-bottom 96 well microplate, thereby initiating an enzyme reaction. The reaction was performed at room temperature for 5 minutes, and the luminescence (integration time 1000 ms) was measured using a Flexstation3 multi-mode microplate reader. In accordance with the instructions for the ONE-Glo™ Luciferase Assay, the luciferase enzyme activity, which represents the activity of the transcription factor TEAD, was measured by a chemiluminescence method, and the inhibitory activity of the compound according to the present disclosure was calculated. The results of each compound were analyzed using Microsoft Excel, and the IC50 values were calculated by GraphPad Prism software.

Assay [2] relates to NCI-H28 cells. The assay can be described thus: Cell growth inhibition test (CellTiter-Glo), NCI-H28. The settings on record: Homo sapiens, NCI-H28 cell line. On the procedure: (§1) The cell growth for the compounds prepared in Examples was measured by CellTiter-Glo® Luminescednt Cell Viability (Promega, Catalog #G7571) method using NCI-H226 (addexbio), NCI-H28 (Korea Cell Line Bank) cell lines. This evaluation method is a method in which when luciferase enzyme is activated by ATP flowing out from living cells, it reacts with a luciferin substrate, and the enzyme activity at this time is measured to confirm cell viability.
(§2) Specifically, NCI-H226, and NCI-H28 cells were prepared in 100 μL of cell culture medium (RPMI medium, 10% FBS, 1% P/S, 4.5 g/L D-Glucose, 2.383 g/L HEPES Buffer, L-Glutamine, 1.5 g/L Sodium Bicarbonate, 110 mg/L Sodium pyruvate) in a white clear bottom 96-well microplate. The prepared plate was incubated in a 5% CO2 incubator at 37° C. for 24 hours, and then the previously prepared compounds of Examples were finally treated at concentrations of 0.0005, 0.005, 0.05, 0.5 and 5 μM, which was repeated three times for all treatment solutions.
(§3) The plates treated with the compounds of Examples were incubated in a 5% CO2 incubator at 37° C. 100 μL/well of the substrate aqueous solution containing luciferin was added to a white clear-bottom 96 well microplate, thereby initiating an enzyme reaction. The reaction was performed at room temperature in the dark for 10 minutes, and the luminescence was measured using a Flexstation3 multi-mode microplate reader. In accordance with the instructions for the CellTiter-Glo™ Luminescednt Cell Viability, the luciferase enzyme activity, which represents the amount of ATP, was measured by a chemiluminescence method, and the inhibitory activity of the compounds according to the present disclosure was calculated. The results of each compound were analyzed using Microsoft Excel, and the IC50 values were calculated using GraphPad Prism software.
For orientation: Cellular ATP, detected with luciferase, serves as a proxy for viable cell number.

The subject of assay [3] is NCI-H226 cells. The assay can be described thus: Cell growth inhibition test (CellTiter-Glo), NCI-H226. The settings on record: Homo sapiens, NCI-H226 cell line. On the procedure:
as §1, §2, §3

In general, pIC50 refers to the IC50 on a negative log10 scale, so that one unit is a factor of ten. Read a low pIC50 as a large IC50.

As to `C=CC(=O)Nc1cc(-c2cn(C)cn2)c2[nH]c(-c3ccc(Cl)cc3)cc2c1` [Example 1, N-(2-(4-chlorophenyl)-7-(1-methyl-1H-imidazol-4-yl)-1H-indol-5-yl)acrylamide], the pIC50 in assay [1] was 8.03; in assay [2], less than 5.30; in assay [3] it was 7.68.

In the case of `C=CC(=O)Nc1cc(-c2cn(C)cn2)c2[nH]c(-c3ccc(C(F)(F)F)cc3)cc2c1` [Example 2, N-(7-(1-methyl-1H-imidazol-4-yl)-2-(4-(trifluoromethyl)phenyl)-1H-indol-5-yl)acrylamide], the pIC50 is 7.41 in assay [1], 5.38 in assay [2] and 7.19 in assay [3].

For the molecule `C=CC(=O)Nc1cc(-c2cn(C)cn2)c2[nH]c(-c3ccc(F)cc3)cc2c1` [Example 3, N-(2-(4-fluorophenyl)-7-(1-methyl-1H-imidazol-4-yl)-1H-indol-5-yl)acrylamide], the pIC50 was 8.46 in assay [1], 5.82 in assay [2] and 8.60 in assay [3].

As for `C=CC(=O)Nc1cc(-c2cn(C)cn2)c2[nH]c(-c3ccccc3)cc2c1` [Example 4, N-(7-(1-methyl-1H-imidazol-4-yl)-2-phenyl-1H-indol-5-yl)acrylamide], the values for the pIC50 in assay [1], in assay [2] and in assay [3] were 7.52, 5.36 and 8.00, respectively.

In the case of `C=CC(=O)Nc1cc(-c2cn(C)cn2)c2[nH]c(-c3ccc(F)cc3F)cc2c1` [Example 5, N-(2-(2,4-difluorophenyl)-7-(1-methyl-1H-imidazol-4-yl)-1H-indol-5-yl)acrylamide], the results for the pIC50 in assay [1], in assay [2] and in assay [3] were 8.19, less than 5.30 and 8.38, respectively.

Consider `C=CC(=O)Nc1cc(-c2cn(C)cn2)c2[nH]c(-c3cc(F)c(F)c(F)c3)cc2c1` [Example 6, N-(7-(1-methyl-1H-imidazol-4-yl)-2-(3,4,5-trifluorophenyl)-1H-indol-5-yl)acrylamide], for which the pIC50 in assay [1] was 8.23; in assay [2] it was 5.40; in assay [3], 8.36.

Turning to `C=CC(=O)Nc1cc(-c2cn(C)cn2)c2[nH]c(-c3ccc(Cl)c(Cl)c3)cc2c1` [Example 8, N-(2-(3,4-dichlorophenyl)-7-(1-methyl-1H-imidazol-4-yl)-1H-indol-5-yl)acrylamide], the negative-log IC50 (pIC50) in assay [1] was 6.96; in assay [2] it was 6.02; in assay [3], 7.24.

Turning to `C=CC(=O)Nc1cc(-c2cn(C)cn2)c2[nH]c(-c3ccc(F)c(F)c3)cc2c1` [Example 9, N-(2-(3,4-difluorophenyl)-7-(1-methyl-1H-imidazol-4-yl)-1H-indol-5-yl)acrylamide], the pIC50 was 7.70 in assay [1], 5.53 in assay [2] and 8.28 in assay [3].

On to `C=CC(=O)Nc1cc(-c2cn(C)cn2)c2[nH]c(-c3cccc(Cl)c3)cc2c1` [Example 10, N-(2-(3-chlorophenyl)-7-(1-methyl-1H-imidazol-4-yl)-1H-indol-5-yl)acrylamide], for which the pIC50 in assay [1] was 7.22; in assay [2], 5.61; in assay [3], 7.70.

For `C=CC(=O)Nc1cc(-c2cn(C)cn2)c2[nH]c(-c3ccc(Cl)cc3F)cc2c1` [Example 12, N-(2-(4-chloro-2-fluorophenyl)-7-(1-methyl-1H-imidazol-4-yl)-1H-indol-5-yl)acrylamide], the pIC50 in assay [1] is 7.10; in assay [2] it was 5.55; in assay [3] it was 7.65.

For `C=CC(=O)Nc1cc(-c2cn(C)cn2)c2[nH]c(C3=CCCCC3)cc2c1` [Example 13, N-(2-cyclohexenyl-7-(1-methyl-1H-imidazol-4-yl)-1H-indol-5-yl)acrylamide], the pIC50 in assay [1] was 7.34; in assay [2] it was 5.46; in assay [3], 7.65.

Turning to `C=CC(=O)Nc1cc(-c2cn(C)cn2)c2[nH]c(-c3ccc(F)c(C)c3)cc2c1` [Example 14, N-(2-(4-fluoro-3-methylphenyl)-7-(1-methyl-1H-imidazol-4-yl)-1H-indol-5-yl)acrylamide], the values for the pIC50 in assay [1], in assay [2] and in assay [3] were 7.31, 5.64 and 7.60, respectively.

With `Cn1cnc(-c2cc(NS(C)(=O)=O)cc3cc(-c4cccc(C(F)(F)F)c4)[nH]c23)c1` [Example 19, N-(7-(1-methyl-1H-imidazol-4-yl)-2-(3-(trifluoromethyl)phenyl)-1H-indol-5-yl)methanesulfonamide], the pIC50 in assay [1] is 6.72; in assay [2] it was 6.36; in assay [3], 6.68.

Take `Cn1cnc(-c2cc(NS(C)(=O)=O)cc3cc(-c4ccc(Cl)cc4)[nH]c23)c1` [Example 21, N-(2-(4-chlorophenyl)-7-(1-methyl-1H-imidazol-4-yl)-1H-indol-5-yl)methanesulfonamide]: the pIC50 in assay [1] is 6.63; in assay [2], 5.65; in assay [3], less than 5.30.

As for `C=CC(=O)Nc1cc(-c2ccn(C)n2)c2[nH]c(-c3ccc(Cl)cc3)cc2c1` [Example 28, N-(2-(4-chlorophenyl)-7-(1-methyl-1H-pyrazol-3-yl)-1H-indol-5-yl)acrylamide], the pIC50 was 7.82 in assay [1], 5.64 in assay [2] and 8.08 in assay [3].

For `C=CC(=O)Nc1cc(-c2ccccn2)c2[nH]c(-c3ccc(Cl)c(Cl)c3)cc2c1` [Example 30, N-(2-(3,4-dichlorophenyl)-7-(pyridin-2-yl)-1H-indol-5-yl)acrylamide], the results for the pIC50 in assay [1], in assay [2] and in assay [3] were 6.90, 6.26 and 6.47, respectively.

In the case of `C=CC(=O)Nc1cc(-c2ccccn2)c2[nH]c(-c3ccc(F)cc3)cc2c1` [Example 31, N-(2-(4-fluorophenyl)-7-(pyridin-2-yl)-1H-indol-5-yl)acrylamide], the pIC50 is 7.52 in assay [1], 5.75 in assay [2] and 7.92 in assay [3].

Take `C=CC(=O)Nc1cc(-c2ccn(C)n2)c2[nH]c(-c3ccc(F)cc3)cc2c1` [Example 32, N-(2-(4-fluorophenyl)-7-(1-methyl-1H-pyrazol-3-yl)-1H-indol-5-yl)acrylamide]: the pIC50 is 7.64 in assay [1], 5.87 in assay [2] and 8.12 in assay [3].

Regarding `C=CC(=O)Nc1cc(-c2ccn(C)n2)c2[nH]c(-c3ccc(F)cc3F)cc2c1` [Example 33, N-(2-(2,4-difluorophenyl)-7-(1-methyl-1H-pyrazol-3-yl)-1H-indol-5-yl)acrylamide], the figures for the pIC50 in assay [1], in assay [2] and in assay [3] were 7.29, 5.31 and 7.61, respectively.

Turning to `Cn1cnc(-c2cc(C(=O)O)cc3cc(-c4ccc(F)cc4)[nH]c23)c1` [Example 35, 2-(4-fluorophenyl)-7-(1-methyl-1H-imidazol-4-yl)-1H-indole-5-carboxylic acid], the values for the pIC50 in assay [1], in assay [2] and in assay [3] were 7.00, less than 5.30 and 6.86, respectively.

Consider `Cn1cnc(-c2cc(C(=O)O)cc3cc(-c4ccc(Cl)cc4)[nH]c23)c1` [Example 37, 2-(4-chlorophenyl)-7-(1-methyl-1H-imidazol-4-yl)-1H-indole-5-carboxylic acid], for which the pIC50 is 7.59 in assay [1], 6.12 in assay [2] and 6.87 in assay [3].

For `Cn1cnc(-c2cc(C(=O)O)cc3cc(-c4ccc(Cl)c(F)c4)[nH]c23)c1` [Example 39, 2-(4-chloro-3-fluorophenyl)-7-(1-methyl-1H-imidazol-4-yl)-1H-indole-5-carboxylic acid], the pIC50 in assay [1] is 7.44; in assay [2] it was less than 5.30; in assay [3] it was 7.66.
